Test results: patent US20240197891A1, “PHARMACEUTICAL COMPOSITIONS COMPRISING POH DERIVATIVES” (UNIVERSITY OF SOUTHERN CALIFORNIA, priority 2021, published 2024)
“Also recorded” adds a separate entry of the source.

How the values were obtained:
[1] = system: USC-04 glioma cancer stem cells; experiment: MTT cytotoxicity assay, USC-04 glioma cancer stem cells; format: cell-based; conditions: USC-04, MTT
Excerpt: (§1) Cancer Lett. 2011 Mar. 28; 302(2):100-8.

normal astrocytes = experiment: MTT cytotoxicity assay, normal astrocytes; conditions: listed as TMZ-POH
Experimental: (§2) MTT cytotoxicity assays were carried out after cells were treated with the TMZ-POH conjugate. The MTT cytotoxicity assays were carried out as described in Chen T C, et al. Green tea epigallocatechin gallate enhances therapeutic efficacy of temozolomide in orthotopic mouse glioblastoma models. Cancer Lett. 2011 Mar. 28; 302(2):100-8.

[2] = system: brain endothelial cells (BEC); experiment: MTT cytotoxicity assay, brain endothelial cells; format: cell-based
Excerpt: as §1

[3] = system: tumor brain endothelial cells (TuBEC); experiment: MTT cytotoxicity assay, tumor brain endothelial cells; format: cell-based
Excerpt: as §1

[4] = system: human malignant glioma cells U87, A172 and U251; experiment: MTT cytotoxicity assays on U87, A172 and U251 cells (stated jointly); format: cell-based
Experimental: J. of Immunological Methods 65: 55 63, 1983. […] Invasion inhibition may be studied by Boyden chambers.
Then U87, A172 and U251 cells were treated with dimethyl celecoxib bisPOH carbamate (POH-DMC) (e.g., synthesized by the method in Example 1), and the MTT cytotoxicity assays performed (FIG. 2).
Then TMZ-resistant glioma cell lines U87, A172 and U251 cells were treated with temozolomide POH carbamate (POH-TMZ) (e.g., synthesized by the method in Example 3).

[5] = system: TMZ sensitive (U251) cells; experiment: Colony forming assay, TMZ sensitive U251 cells; format: cell-based, human
Experimental: (§3) Colony forming assays were carried out after cells were treated with TMZ alone, POH alone, and the TMZ-POH conjugate. […] Cancer Lett. 2011 Mar. 28; 302(2):100-8.

[6] = system: ER stress (CHOP) in TMZ sensitive and resistant U251 glioma cells; experiment: Western blot of ER stress in U251 glioma cells; format: cell-based, human; conditions: 18 hr
Experimental: Western blots were performed after TMZ sensitive and resistant glioma cells were treated with the TMZ-POH conjugate for 18 hr. […] Activation of the proapoptotic protein CHOP was shown at concentrations as low as 60 uM of TMZ-POH.

U251 human glioma cells = experiment: MTT cytotoxicity assay, U251 cells
Excerpt: (§4) In vitro efficacy of the present composition can be determined using methods well known in the art. For example, the cytotoxicity of the present monoterpene (or sesquiterpene) and/or the therapeutic agents may be studied by MTT [3-(4,5-dimethylthiazol-2-yl)-2,5-diphenyl tetrazolium bromide] cytotoxicity assay. MTT assay is based on the principle of uptake of MTT, a tetrazolium salt, by metabolically active cells where it is metabolized into a blue colored formazan product, which can be read spectrometrically. J. of Immunological Methods 65: 55 63, 1983. The cytotoxicity of the present monoterpene (or sesquiterpene) derivative and/or the therapeutic agents may be studied by colony formation assay. Functional assays for inhibition of VEGF secretion and IL-8 secretion may be performed via ELISA. Cell cycle block by the present monoterpene (or sesquiterpene) derivative and/or the therapeutic agents may be studied by standard propidium iodide (PI) staining and flow cytometry. Invasion inhibition may be studied by Boyden chambers. In this assay a layer of reconstituted basement membrane, Matrigel, is coated onto chemotaxis filters and acts as a barrier to the migration of cells in the Boyden chambers. Only cells with invasive capacity can cross the Matrigel barrier. Other assays include, but are not limited to cell viability assays, apoptosis assays, and morphological assays.
(§5) To compare the cytotoxicity of Rolipram POH Carbamate (POH-Rolipram) (e.g., synthesized by the method in Example 5) with rolipram, […] inducing differentiation and apoptosis in glioma cells, A172, U87, U251 and LN229 human glioma cells were treated with either POH-Rolipram or rolipram for 48 hours.
as §2

[7] = system: TMZ resistant cells (U251TR); experiment: MTT cytotoxicity assay, U251TR cells
Experimental: as §2

[8] = system: USC-02 glioma cancer stem cells; experiment: MTT cytotoxicity assay, USC-02 glioma cancer stem cells; format: cell-based; conditions: USC-02, MTT
Excerpt: as §1

[9] = system: TMZ resistant (U251TR) U251 cells; experiment: Colony forming assay, TMZ resistant U251TR cells; format: cell-based, human
Experimental: as §3

[10] = system: subcutaneous U-87 gliomas; experiment: Nude mouse subcutaneous glioma model; format: in vivo; conditions: local application via Q-tip, 1 cc/application/day, 8 weeks; 60 days
Experimental: Inhibition of tumor growth by butyryl-POH was studied in a nude mouse subcutaneous glioma model. Mice were injected with U-87 glioma cells (500,000 cells/injection) and allowed to form a palpable nodule over two weeks. Once palpable nodule was formed, the mice were treated with local application of various compounds as indicated in FIGS. 9A and 9B via a Q-tip (1 cc/application/day) over a period of 8 weeks.

A172 human glioma cells = experiment: MTT cytotoxicity assay, A172 cells; format: cell-based; conditions: A-172 cells, 48 hours
Excerpt: as §4, with “assays. […]” for “assays.”

U87 human glioma cells = experiment: MTT cytotoxicity assay, U87 cells; format: cell-based; conditions: U-87 cells, 48 hours
Excerpt: as §4, with “assays. […]” for “assays.”

[11] = system: A172, U87, U251 and LN229 human glioma cells; experiment: MTT assay, POH-Rolipram versus rolipram across glioma cell types (stated jointly); format: cell-based; conditions: each of A172, U87, U251, LN229; 48 hours
Excerpt: as §4, with “assays. […]” for “assays.”

LN229 human glioma cells = experiment: cells
Excerpt: as §4, §5

C=C(C)C1CC=C(COC(=O)NC(=O)c2ncn3c(=O)n(C)nnc23)CC1 (stereo not shown) [POH-TMZ]
IC50 [1]: 150 µM
cytotoxicity (MTT) (normal astrocytes): not towards normal astrocytes; also recorded: did not induce significant cytotoxicity
cytotoxicity (MTT) ([2]; confluent BEC): did not induce significant cytotoxicity
cytotoxicity (MTT) ([2]; subconfluent BEC, high concentrations): Mild to moderate cytotoxicity
cytotoxicity (MTT) [3]: did not induce significant cytotoxicity
cytotoxicity / kill rates (MTT) [4]: substantially higher kill rates
cytotoxicity (colony forming assay) ([5]; TMZ sensitive U251 cells): demonstrated cytotoxicity
potency in the colony forming assays compared to POH alone ([5]; U251 and U251TR cells): substantially greater potency compared to POH alone
ER stress (ERS) induction ([6]; TMZ sensitive and resistant U251 cells): induces ER stress
lowest concentration showing activation of the proapoptotic protein CHOP ([6]; western blot): 60 µM
cytotoxicity (MTT) (U251 human glioma cells; TMZ sensitive U251 cells, Example 9): demonstrated cytotoxicity
cytotoxicity (MTT) [7]: demonstrated cytotoxicity
IC50 [8]: 60 µM
cytotoxicity (colony forming assay) [9]: demonstrated cytotoxicity

C=C(C)C1CC=C(COC(=O)CCC)CC1 (stereo not shown) [Butyryl-POH]
inhibition of tumor growth [10]: greatest inhibition of tumor growth

C=C(C)C1CC=C(COC(=O)N2CC(c3ccc(OC)c(OC4CCCC4)c3)CC2=O)CC1 (stereo not shown) [POH-rolipram, 4-(3-cyclopentyloxy-4-methoxyphenyl)-2-oxo-pyrrolidine-1-carboxylic acid 4-isopropenyl cyclohex-1-enylmethyl ester]
IC50 (A172 human glioma cells): 50 µM
IC50 (U87 human glioma cells): 180 µM
kill rates (MTT) [11]: substantially higher kill rates compared to rolipram alone
cytotoxicity at 100 uM (U251 human glioma cells): ~100%
IC50 (U251 human glioma cells; U251 cells, MTT, 48 hours): 50 µM
cytotoxicity at 10 uM (LN229 human glioma cells): ~100%
IC50 (LN229 human glioma cells; LN229 cells, MTT, 48 hours): 100 µM
